# Assay results reported in patent US20190133518A1, “METHODS AND SYSTEMS FOR DETERMINING DIURETIC RESPONSE PROFILES” (PACESETTER, INC., priority 2017, published 2019).
# Test system: patient
# Assay: Mean PAP measurements of a patient before and after taking medication (Example 1, medication modification)
# Type: in vivo
# Excerpt: In accordance with the present disclosure, an exemplary embodiment is as follows. A patient implanted with CARDIOMEMS, instead of simply providing a single reading each day, provides a reading twice a week (or daily) via the following protocol: First, the patient wakes up in the morning and takes a PAP reading (prior to any medication ingestion). Immediately thereafter, the patient takes all medications, which include HF medications including diuretic(s). A timer goes off in the bed-side monitor (patient home electronics unit), and about sixty minutes later, the patient takes another PAP recording. As noted elsewhere throughout this disclosure, the timing between readings is variable.
# The protocol based recordings are marked with a unique identifier and transmitted to a database (e.g., Merlin.net database). The protocol based PAP recordings are then used to determine the diuretic response profile of the patient. Specifically, the response profile is determined using PAP measurement data-points at time […] (pre medication) and time (t2) (“x” minutes after medication) and the time constant of the specific diuretic via, for example, a polynomial regression fit. For example, the time constant of furosemide is shorter than the longer acting thiazide diuretic.
# This example examined the characterization/determination of medication dosage and temporal response in a patient given different kinds of medication. […] The mean PAP measurement of the patient at time (t1) was about 35 mmHg. […].
structure (smiles),measurement,setting,value
NS(=O)(=O)c1cc(C(=O)O)c(NCc2ccco2)cc1Cl [furosemide],average PAP measurement at time (t2),"week 1, 80 mg furosemide, about 1 hour after medication (FIG. 6A)",about 19 mmHg
same,mean PAP measurement at time (t3),"week 1, 80 mg furosemide, about 2 hours after medication (FIG. 6A)",about 21 mmHg
same,mean PAP measurement at time (t1),"week 1, 80 mg furosemide, t1 prior to medication (FIG. 6A)",about 35 mmHg
same,mean PAP measurements at time (t2) and time (t3) compared with week 1,"week 2, 80 mg furosemide (FIG. 6B)",similar
same,mean PAP measurement after medication,"week 2, 80 mg furosemide, after medication (FIG. 6B)",about 19 mmHg
same,mean PAP measurement at time (t1),"week 2, 80 mg furosemide, t1 prior to medication (FIG. 6B)",about 31 mmHg
same,diuretic profile in the patient,"week 10, 80 mg furosemide (FIG. 6C)",early signs of developing diuretic resistance
same,mean PAP measurement at time (t1),"week 10, 80 mg furosemide, prior to ingestion of the medication (FIG. 6C)",about 31 mmHg
same,mean PAP measurement after medication,"week 10, 80 mg furosemide, time (t2) and time (t3) (FIG. 6C)",about 27 mmHg
